From ChEMBL document CHEMBL1201862, “PubChem BioAssay data set” (2004)
Activity calls are given as the source filed them.

Columns and labels:
[1] = viability of uninfected HEp-2 cells – cell-based, HTS, cytotoxicity control for RSV inhibitor project, dose response (AID 2410); format: functional; details: human respiratory syncytial virus
Cytochrome P450 3A4 = Cytochrome P450 3A4 (Homo sapiens, UniProt P08684);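 further: CYP3A4 tested as one member of a cytochrome P450 panel screen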
[2] = target: T1, Heat shock factor protein 1 (Mus musculus, UniProt P38532); test: enhancement of HSF1-driven luciferase signal – cell-based, NIH3T3, luminescence, dose retest, confirmation (AID 435004); format: functional;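 further: stress induced by proteasome inhibitor MG132 added 30 min after compound; luciferase reporter driven by HSF1 response element in NIH3T3 cells; actives raise luminescence as potentiators of the MG132 stress response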
T1 sequence (P38532 whole entry): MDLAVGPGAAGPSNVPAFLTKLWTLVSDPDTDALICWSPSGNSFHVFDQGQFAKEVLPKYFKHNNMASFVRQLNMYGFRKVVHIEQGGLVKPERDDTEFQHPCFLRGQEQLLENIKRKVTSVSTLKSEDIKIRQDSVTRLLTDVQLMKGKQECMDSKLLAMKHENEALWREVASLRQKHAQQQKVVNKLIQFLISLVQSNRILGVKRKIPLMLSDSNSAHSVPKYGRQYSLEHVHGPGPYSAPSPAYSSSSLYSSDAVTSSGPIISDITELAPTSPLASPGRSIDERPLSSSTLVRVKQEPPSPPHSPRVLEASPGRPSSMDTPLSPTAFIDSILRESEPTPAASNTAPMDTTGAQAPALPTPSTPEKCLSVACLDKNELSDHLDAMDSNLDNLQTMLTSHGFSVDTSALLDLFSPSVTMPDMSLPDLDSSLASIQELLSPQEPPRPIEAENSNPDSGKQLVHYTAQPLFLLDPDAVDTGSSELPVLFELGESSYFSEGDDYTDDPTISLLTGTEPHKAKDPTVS

[3] = Luminescence Cell-Based Dose Retest to Confirm Inhibitors of Cancer Stem Cells. [Related pubchem assays (depositor defined):AID2717, AID2721]; format: functional; details: Homo sapiens
Cytochrome P450 2C9 = Cytochrome P450 2C9 (Homo sapiens, UniProt P11712)
Cytochrome P450 2C19 = Cytochrome P450 2C19 (Homo sapiens, UniProt P33261); test: Cytochrome panel assay with activity outcomes. Panel member name: p450-cyp2c19 Compounds with AC50 equal or less than 10 uM are considered active; format: functional; details: read-out: AC50
Cytochrome P450 1A2 = target: T2, Cytochrome P450 1A2 (Homo sapiens, UniProt P05177);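 further: PubChem cytochrome P450 panel assay, CYP1A2 panel member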
T2 sequence (P05177 whole entry): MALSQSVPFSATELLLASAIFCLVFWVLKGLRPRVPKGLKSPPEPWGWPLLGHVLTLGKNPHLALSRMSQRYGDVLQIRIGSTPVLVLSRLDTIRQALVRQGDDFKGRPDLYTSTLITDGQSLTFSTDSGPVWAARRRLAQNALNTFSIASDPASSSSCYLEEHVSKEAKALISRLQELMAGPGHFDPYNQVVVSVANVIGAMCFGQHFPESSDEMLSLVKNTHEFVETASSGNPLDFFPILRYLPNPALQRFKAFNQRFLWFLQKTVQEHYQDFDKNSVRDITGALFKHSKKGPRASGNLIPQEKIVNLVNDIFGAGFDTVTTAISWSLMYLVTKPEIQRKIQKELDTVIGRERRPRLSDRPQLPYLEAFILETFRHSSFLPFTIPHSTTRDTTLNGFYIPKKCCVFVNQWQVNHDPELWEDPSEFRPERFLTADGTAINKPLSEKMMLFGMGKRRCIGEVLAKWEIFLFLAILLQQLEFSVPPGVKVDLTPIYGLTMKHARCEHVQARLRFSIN

[4] = system: Streptococcus sp. 'group A'; test: Streptococcus pyogenes SK(-)GAS viability under kanamycin – luminescence, BacTiterGlo, confirmation, counter-screen for streptokinase expression inhibitor project, dose response (AID 1900); format: functional, organism-based
Streptokinase A = target: T3, Streptokinase A (Streptococcus pyogenes serotype M1, UniProt P10520); test: viability-normalized secreted streptokinase activity reduction – plasminogen activation absorbance, OD405, dose response (AID 1914); format: functional, Streptococcus pyogenes M1 GAS;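 further: secreted streptokinase activity via plasminogen activation per viability signal from cell pellet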
T3 sequence (P10520 whole entry): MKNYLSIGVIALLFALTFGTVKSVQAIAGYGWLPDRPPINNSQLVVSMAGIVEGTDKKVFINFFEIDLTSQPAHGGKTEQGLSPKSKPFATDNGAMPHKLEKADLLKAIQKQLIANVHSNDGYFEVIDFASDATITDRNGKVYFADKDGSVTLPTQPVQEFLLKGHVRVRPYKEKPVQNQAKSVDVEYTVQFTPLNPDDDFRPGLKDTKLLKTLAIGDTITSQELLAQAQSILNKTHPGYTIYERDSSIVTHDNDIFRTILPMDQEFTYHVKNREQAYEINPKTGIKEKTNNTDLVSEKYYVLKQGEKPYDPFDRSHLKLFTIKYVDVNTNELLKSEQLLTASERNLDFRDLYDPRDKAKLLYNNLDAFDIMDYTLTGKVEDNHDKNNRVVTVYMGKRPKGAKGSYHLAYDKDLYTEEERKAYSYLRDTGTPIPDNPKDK

Streptococcus = test: GAS UMAA2166 growth inhibition – luminescence, BacTiterGlo, counter-screen for streptokinase expression inhibitor project, dose response (AID 1915); format: functional, organism-based;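 further: potency for reduction of bacterial viability or growth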
[5] = NIH3T3 cell viability loss – ATP luminescence, mouse fibroblasts, counter-screen, dose response (AID 2010); format: functional, cell-based;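 further: cells exposed to compound for about 90 hours before reading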
[6] = Trypanosoma cruzi growth suppression in host cells – NIH3T3 host cells, beta-gal luminescence, confirmation (AID 2044); format: functional, cell-based;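 further: intracellular parasites grown in NIH/3T3 mouse fibroblasts as host cells; luminescent beta-galactosidase reporter signal from transgenic T. cruzi replicating inside host cells; inhibitors lower the luminescence signal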

Cytochrome P450 2C9, sequence (P11712 whole entry): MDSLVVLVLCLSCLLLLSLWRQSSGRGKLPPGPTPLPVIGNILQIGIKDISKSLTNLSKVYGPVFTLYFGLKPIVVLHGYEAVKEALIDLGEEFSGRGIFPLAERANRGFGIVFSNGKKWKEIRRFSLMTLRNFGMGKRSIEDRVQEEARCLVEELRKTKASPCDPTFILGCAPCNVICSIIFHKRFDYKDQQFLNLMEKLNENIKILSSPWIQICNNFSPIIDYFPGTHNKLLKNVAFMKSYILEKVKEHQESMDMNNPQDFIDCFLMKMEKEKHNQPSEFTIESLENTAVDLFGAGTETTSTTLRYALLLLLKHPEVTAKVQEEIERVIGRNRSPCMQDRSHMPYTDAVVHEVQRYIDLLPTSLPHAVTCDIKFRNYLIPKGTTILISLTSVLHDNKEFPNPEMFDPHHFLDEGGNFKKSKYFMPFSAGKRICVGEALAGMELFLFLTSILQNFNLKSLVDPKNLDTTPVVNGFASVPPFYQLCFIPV
Cytochrome P450 2C19, sequence (P33261 whole entry): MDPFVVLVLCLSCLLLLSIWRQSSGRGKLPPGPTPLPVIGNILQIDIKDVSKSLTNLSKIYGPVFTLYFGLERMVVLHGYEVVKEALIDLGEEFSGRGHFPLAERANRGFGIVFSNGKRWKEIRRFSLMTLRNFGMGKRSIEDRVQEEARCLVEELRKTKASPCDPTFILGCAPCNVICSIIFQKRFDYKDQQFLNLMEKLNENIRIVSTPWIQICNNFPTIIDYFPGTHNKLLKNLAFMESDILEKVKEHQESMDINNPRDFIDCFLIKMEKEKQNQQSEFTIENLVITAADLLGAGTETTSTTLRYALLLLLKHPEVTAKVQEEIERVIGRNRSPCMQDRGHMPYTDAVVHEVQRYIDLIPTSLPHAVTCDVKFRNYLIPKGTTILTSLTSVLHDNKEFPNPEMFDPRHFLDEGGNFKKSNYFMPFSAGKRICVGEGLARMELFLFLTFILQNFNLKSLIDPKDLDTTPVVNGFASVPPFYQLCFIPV
Cytochrome P450 3A4, sequence (P08684 whole entry): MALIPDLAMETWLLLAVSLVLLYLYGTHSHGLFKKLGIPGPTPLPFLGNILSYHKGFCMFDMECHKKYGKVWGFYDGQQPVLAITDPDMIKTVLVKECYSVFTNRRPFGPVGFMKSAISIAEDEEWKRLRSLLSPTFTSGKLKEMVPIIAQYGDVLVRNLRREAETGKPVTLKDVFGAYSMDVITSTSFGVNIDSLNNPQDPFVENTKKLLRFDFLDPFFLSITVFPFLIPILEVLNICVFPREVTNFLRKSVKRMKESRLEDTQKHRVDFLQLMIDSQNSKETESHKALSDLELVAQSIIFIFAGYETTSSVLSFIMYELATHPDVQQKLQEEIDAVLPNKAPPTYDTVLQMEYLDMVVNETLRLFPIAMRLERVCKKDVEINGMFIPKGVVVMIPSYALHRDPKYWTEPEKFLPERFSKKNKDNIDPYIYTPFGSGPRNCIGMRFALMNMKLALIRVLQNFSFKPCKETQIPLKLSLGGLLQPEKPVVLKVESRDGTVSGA

SMILES: CCOc1ccc(OCc2ccc(C(=O)N3CCc4ccccc4C3)o2)cc1
- CC50 [1]: 23.4 µM (active)
- AC50 (Cytochrome P450 3A4): 39.8 µM (inconclusive)

SMILES: COc1ccc(Cc2nnc(SCC(=O)Nc3ccc(N4CCOCC4)cc3)o2)cc1
- EC50 [2]: > 260 µM (inactive)

SMILES: Oc1ccc(Nc2nc(-c3ccccc3O)nc3ccccc23)cc1
- AC50 [3]: 2.71 µM (active)

SMILES: Oc1cccnc1Sc1cccc(C(F)(F)F)c1
- EC50 [2]: 165 µM (active)

SMILES: Cc1ccc(C(=O)NCC(C)NC(=O)c2ccc(C)c([N+](=O)[O-])c2)cc1[N+](=O)[O-] (stereo not drawn)
- EC50 [2]: > 260 µM (inactive)

SMILES: COC(=O)[C@@]1(Cc2ccccc2)[C@H]2c3cc(C(=O)N(C)C)n(Cc4ccc(S(C)(=O)=O)cc4)c3C[C@H]2CN1C(=O)c1ccccc1
- AC50 (Cytochrome P450 2C9): 25.1 µM (inconclusive)
- AC50 (Cytochrome P450 2C19): 39.8 µM (inconclusive)
- AC50 (Cytochrome P450 1A2): 31.6 µM (inconclusive)

SMILES: O=C(CCC1N=C2c3ccccc3N=C(SCc3ccc(Cl)cc3)N2C1=O)NCc1ccco1 (stereo not drawn)
- CC50 [1]: 25.4 µM (active)

SMILES: COc1ccc(S(=O)(=O)Cc2ccc(C(=O)NCCCN(C)c3ccccc3)o2)cc1
- EC50 [2]: > 260 µM (inactive)

SMILES: COc1ccc(-c2cc(C(=O)NCc3ccco3)c3ccccc3n2)cc1
- EC50 [2]: 158 µM (active)

SMILES: O=C(CCc1ccc(S(=O)(=O)N2CCOCC2)cc1)N1CCN(Cc2ccc3c(c2)OCO3)CC1
- EC50 [2]: > 260 µM (inactive)

SMILES: CN(/C(=N\S(=O)(=O)c1ccccc1)c1ccccc1)c1ccc(O)cc1
- EC50 [2]: > 260 µM (inactive)

SMILES: COc1ccc(NC(=O)c2[nH]cnc2C(=O)N[C@@H](CC(C)C)C(=O)OC(C)(C)C)cc1
- EC50 [4]: 4.08 µM (active)
- EC50 (Streptokinase A): > 150 µM (not active)
- EC50 (Streptococcus): 11.6 µM (active)
- AC50 [3]: 7.16 µM (active)

SMILES: N#Cc1cccc(NC(=O)N2CCCC3(CCN(C(=O)Oc4ccccc4)CC3)C2)c1
- AC50 (Cytochrome P450 2C9): 25.1 µM (inconclusive)
- AC50 (Cytochrome P450 2C19): 25.1 µM (inconclusive)
- AC50 (Cytochrome P450 3A4): 12.6 µM (inconclusive)
- AC50 (Cytochrome P450 1A2): 15.8 µM (inconclusive)

SMILES: CSc1nc2ccccc2n1CC(=O)Nc1cc(C(F)(F)F)ccc1N1CCOCC1
- CC50 [1]: 42.4 µM (active)

SMILES: COc1cccc(NP(=O)(Oc2ccc(Cl)cc2)Oc2ccc(Cl)cc2)c1
- EC50 [4]: 6.17 µM (active)
- EC50 (Streptokinase A): 4.68 µM (active)
- EC50 (Streptococcus): 11.2 µM (active)
- AC50 [3]: 3.11 µM (active)

SMILES: O=C(Nc1cc(Cl)ccc1O)C1CC(c2ccccc2Cl)=NO1 (stereo not drawn)
- CC50 [1]: > 50 µM (active)

SMILES: COC(=O)C1C(=O)C2=C(CC1C)N=C(C)/C(=C(/O)OCc1ccc(OC)cc1)C2c1ccc(C)o1 (stereo not drawn)
- EC50 [2]: > 260 µM (inactive)

SMILES: CCC1(C)Cc2c(sc3nc(SC)n(Cc4ccccc4)c(=O)c23)CO1 (stereo not drawn)
- AC50 [3]: 0.259 µM (active)

SMILES: COc1cc(-n2ccnc2SC)c(Cl)cc1Cl
- AC50 (Cytochrome P450 2C9): 39.8 µM (inconclusive)
- AC50 (Cytochrome P450 2C19): 7.08 µM (inconclusive)
- AC50 (Cytochrome P450 1A2): 15.8 µM (inconclusive)

SMILES: CCO[C@@H]1OC(C(=O)Nc2ccccc2)=C[C@H](c2csc3ccccc23)[C@H]1CCCO
- CC50 [1]: 22.4 µM (active)

SMILES: O=c1cc(-c2ccccc2Cl)oc2c(NS(=O)(=O)c3cccs3)ccc(O)c12
- CC50 [1]: 22 µM (active)

SMILES: COc1ccc2[nH]c3c(NCCCN4CCCC4=O)ncnc3c2c1
- AC50 (Cytochrome P450 2C9): 3.98 µM (inconclusive)
- AC50 (Cytochrome P450 2C19): 39.8 µM (inconclusive)
- AC50 (Cytochrome P450 3A4): 17.8 µM (inconclusive)

SMILES: COc1ccccc1/C=C/C=N/n1c(S)nnc1-c1[nH]nc2c1CCC2
- AC50 [3]: 13.7 µM (active)

SMILES: C=CCc1ccc(OCC(O)CO)c(OC)c1 (stereo not drawn)
- EC50 [2]: > 260 µM (inactive)

SMILES: N#Cc1cccc(Nc2c3c(nc4ccccc24)CCCC3)c1
- CC50 [1]: 15.9 µM (active)

SMILES: CC(C)NC(=O)c1c(O)c2cccc3c2n(c1=O)CCC3
- CC50 [1]: 17.3 µM (active)

SMILES: O=C(CCN1C(=O)C2C3C=CC(C3)C2C1=O)N1CCN(c2cccc(Cl)c2)CC1 (stereo not drawn)
- AC50 (Cytochrome P450 2C9): 11.2 µM (inconclusive)
- AC50 (Cytochrome P450 2C19): 25.1 µM (inconclusive)

SMILES: Cc1ccc(OCCN2CCN(c3nc(NCc4ccco4)c4ccccc4n3)CC2)cc1
- EC50 [5]: 6.18 µM (active)
- AC50 [3]: 4.7 µM (active)
- EC50 [6]: 1.35 µM (active)

SMILES: COc1ccccc1NC(=O)CC(=O)CSc1nnc(-c2ccc(C)cc2)n1C
- CC50 [1]: 17.7 µM (active)

SMILES: CCOC(=O)c1nn(-c2ccc(F)cc2)c(-c2ccccc2)c1C(=O)c1ccccc1
- AC50 [3]: 5.46 µM (active)

SMILES: FC(F)(F)c1cnc(Sc2nc3nccc(-c4ccc(Cl)cc4)n3n2)c(Cl)c1
- EC50 [5]: > 30 µM (not active)
- EC50 [2]: > 260 µM (inactive)
- EC50 [6]: 1.72 µM (active)

SMILES: COc1ccc(Br)cc1CN1CCCCCCC1
- EC50 [2]: > 260 µM (inactive)

SMILES: CCCc1cc(O)nc(SCC(=O)c2cc(C)n(C3CC3)c2C)n1
- CC50 [1]: 43.1 µM (active)

SMILES: Clc1ccc2c(c1)C1OCCC1C(c1ccco1)N2 (stereo not drawn)
- CC50 [1]: 33.4 µM (active)

SMILES: COc1cc(NC(=O)c2cc([N+](=O)[O-])ccc2NC(=O)CNC2CCCCC2C)cc(OC)c1 (stereo not drawn)
- EC50 [2]: > 260 µM (inactive)

SMILES: NC(=O)CC(NC(=O)Cc1cccc2ccccc12)c1ccc(NCc2ccc(F)c(F)c2)c([N+](=O)[O-])c1 (stereo not drawn)
- AC50 [3]: 11.2 µM (active)

SMILES: COc1cc(/C=C/C(=O)c2c(O)ccc3c(C)cc(=O)oc23)ccc1O
- EC50 [2]: 15 µM (active)
